Data from patent US20260166045A1, “COMBINATION THERAPY COMPRISING GSPT1-DIRECTED MOLECULAR GLUE DEGRADERS AND PI3K/AKT/mTOR PATHWAY INHIBITORS” (Monte Rosa Therapeutics, Inc., priority 2022, published 2026).

Test system: MCF7 xenografts
Assay: MCF7 cell-derived xenograft (CDX) in vivo combination study
Parameters: species or system BALB/c nude mice
Settings: compound 1-1 10 mg/kg; for Δ TV ratio to vehicle group (A/C, B/C, (AB)/C): day 28, Clarke method; for Δ TV (delta tumor volume): p.o. qd for 28 days, average of four tumors
Description: […] (0.36 mg) pellets (Innovative Research of America Cat. No.: SE-121, pellet size: 3.0 mm) were implanted 2-3 days before cell inoculation.
Compound 1-1 was formulated every day freshly as a solution in 5% DMSO/95% (30% w/v HPβCD in water). This formulation was also used as vehicle control. Everolimus was formulated as a suspension in 1% MC (400 cps), which was prepared every 3 days.
Body weights were measured at the same time.
An approximation of drug interactions was made using the method described by Clarke (Clarke et al. 1997. Breast Cancer Res Treat. 46(2-3):255-78). This was applied to […] and can estimate interactions from limited data. In short, for compound A, B, or the combination AB (with control group C), antagonism is predicted when (AB)/C>(A/C)×(B/C), an additive effect is predicted when (AB)/C=(A/C)×(B/C), and synergistic interaction is predicted to occur when (AB)/C<(A/C)×(B/C). Calculations in Table 10B indicate that the interaction of everolimus and compound 1-1 in the MCF7 CDX model is synergistic.
17β-Estradiol (0.36 mg) pellets (Innovative Research of America Cat. No.: SE-121, pellet size: 3.0 mm) were implanted 2-3 days before cell inoculation.
Compound 1-1 was formulated every day freshly as a solution in 5% DMSO/95% (30% w/v HPβCD in water). This formulation was also used as vehicle control. Alpelisib was formulated as a solution in 20% captisol+80% water (pH adjusted to 4), which was prepared every week.

What does the source list for `O=C1CCC(N2Cc3ccc(COC(=O)Nc4cc(OC(F)(F)F)ccc4F)cc3C2=O)C(=O)N1` (stereo not drawn) [Compound 1-1, [2-(2,6-dioxopiperidin-3-yl)-3-oxo-2,3-dihydro-1H-isoindol-5-yl]methyl N-[2-fluoro-5-(trifluoromethoxy)phenyl]carbamate]?
anti-tumor effect compared to vehicle (day 28, ANOVA with post hoc Tukey's test, alpelisib 50 mg/kg, p.o. qd): significant anti-tumor effect; antitumor effect vs vehicle (tumor volume) (day 28, ANOVA with post hoc Tukey's test, everolimus 2 mg/kg, p.o. qd): statistically significant antitumor effects; Δ TV ratio to vehicle group (A/C, B/C, (AB)/C) (alpelisib 50 mg/kg, p.o. qd): 0.35; Δ TV ratio to vehicle group (A/C, B/C, (AB)/C) (everolimus 2 mg/kg, p.o. qd): 0.35; Δ TV (delta tumor volume) (day 28, alpelisib 50 mg/kg, combination 50 + 10 mg/kg): 216 mm^3; Δ TV (delta tumor volume) (day 28, everolimus 2 mg/kg, combination 2 + 10 mg/kg): 216 mm3
